Measurements: patent US10597388B2, “Pyridazinone herbicides” (FMC CORPORATION, priority 2014, dated 2020)

Tests used:
Format in all cases: in vivo
[1] = system: blackgrass (Alopecurus myosuroides); assay: Test A greenhouse herbicide test, postemergence
Procedure, shortened: (§1)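 Visual injury score, 0 (no effect) to 100 (complete control), versus untreated controls roughly 10 d after postemergence spray; plants at one- to two-leaf stage, 2 to 10 cm tall, in loam soil and sand, kept in greenhouse.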

[2] = system: galium (catchweed bedstraw, Galium aparine); assay: Test A greenhouse herbicide test, postemergence
Procedure, shortened: as §1

[3] = system: barnyardgrass (Echinochloa crus-galli); assay: Test C greenhouse herbicide test, pre- and postemergence
Procedure, shortened: (§2)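 Seeds sown in loam–sand blend treated preemergence; plants in peat-based medium sprayed postemergence at 2–18 cm (1- to 4-leaf stage); chemicals in non-phytotoxic solvent with surfactant. Greenhouse 13–15 d, then visual rating versus controls on 0–100 scale (0 no effect, 100 complete control).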

[4] = system: blackgrass (Alopecurus myosuroides); assay: as above
Procedure, shortened: as §2

[5] = system: galium (catchweed bedstraw, Galium aparine); assay: as above
Procedure, shortened: as §2

[6] = system: nutsedge, yellow (yellow nutsedge, Cyperus esculentus); assay: as above
Procedure, shortened: as §2

[7] = system: pigweed (Amaranthus retroflexus); assay: as above
Procedure, shortened: as §2

[8] = system: ragweed (common ragweed, Ambrosia elatior); assay: as above
Procedure, shortened: as §2

[9] = system: ryegrass, Italian (Italian ryegrass, Lolium multiflorum); assay: as above
Procedure, shortened: as §2

soybean (Glycine max) = assay: as above
Procedure, shortened: as §2

[10] = system: velvetleaf (Abutilon theophrasti); assay: as above
Procedure, shortened: as §2

[11] = system: chickweed (common chickweed, Stellaria media); assay: Test C greenhouse herbicide test, postemergence
Procedure, shortened: (§3)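 Postemergence foliar treatment, 1- to 4-leaf stage (2–18 cm), peat/vermiculite medium; greenhouse 13–15 d; visual rating vs controls, 0 = no effect, 100 = complete control; dash = no result.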

kochia (Kochia scoparia) = assay: Test C greenhouse herbicide test, postemergence; settings: for Plant response rating, Kochia: Postemergence
Procedure, shortened: as §3

[12] = system: oat, wild (wild oat, Avena fatua); assay: Test C greenhouse herbicide test, postemergence; settings: for Plant response rating, Oat, Wild: Postemergence
Procedure, shortened: as §3

[13] = 125 g ai/ha, 0 to 100 scale where 0 is no effect and 100 is complete control
[14] = Postemergence, 31 g ai/ha, 0 to 100 scale (0 no effect, 100 complete control)
[15] = Postemergence, 125 g ai/ha, scale 0 to 100, 0 is no effect, 100 is complete control
[16] = Postemergence, 250 g ai/ha, scale 0 to 100, 0 no effect, 100 complete control, 13 to 15 d
[17] = Preemergence, 31 g ai/ha, scale 0 to 100, 0 is no effect, 100 is complete control
[18] = Preemergence, 62 g ai/ha, scale 0 to 100, 0 is no effect, 100 is complete control
[19] = Preemergence, 125 g ai/ha, scale 0 to 100, 0 is no effect, 100 is complete control
[20] = Preemergence, 250 g ai/ha, scale 0 to 100, 0 no effect, 100 complete control
[21] = postemergence, 62 g ai/ha, scale 0 to 100, 0 no effect, 100 complete control
[22] = 125 g ai/ha, scale 0 to 100, 0 is no effect, 100 is complete control
[23] = 250 g ai/ha, scale 0 to 100, 0 no effect, 100 complete control, 13 to 15 d

COC(=O)Oc1cnn(C)c(=O)c1-c1c(C)sc2ccccc12 [Compound 97]
70: Plant response rating, Kochia (kochia (Kochia scoparia); [22])
90: Plant response rating, Blackgrass [1, 13] | Blackgrass plant response rating ([1]; 500 g ai/ha, 0 to 100 scale, 0 is no effect, 100 is complete control) | Plant response rating, Galium [5, 16] | Galium plant response rating [5, 20]
10: Ragweed plant response rating [8, 20] | Ragweed plant response rating [8, 21] | Plant response rating, Soybean (soybean (Glycine max); [18]) | Plant response rating, Soybean (soybean (Glycine max); [19]) | Plant response rating, Velvetleaf [10, 15] | Plant response rating, Oat, Wild [12, 23]
50: Pigweed plant response rating [7, 21] | Plant response rating, Ryegrass, Italian [9, 15]
5: Barnyardgrass plant response rating [3, 21] | Blackgrass plant response rating [4, 20] | Plant response rating, Nutsedge, Yellow [6, 16] | Plant response rating, Pigweed [7, 17] | Plant response rating, Ryegrass, Italian [9, 17] | Plant response rating, Ryegrass, Italian [9, 18] | Plant response rating, Soybean (soybean (Glycine max); [15]) | Plant response rating, Soybean (soybean (Glycine max); [16]) | Plant response rating, Oat, Wild [12, 22] | Oat, Wild plant response rating [12, 21]
35: Plant response rating, Barnyardgrass [3, 16] | Barnyardgrass plant response rating [3, 20] | Plant response rating, Pigweed [7, 18] | Plant response rating, Ragweed [8, 16]
20: Soybean plant response rating (soybean (Glycine max); [20]) | Plant response rating, Velvetleaf [10, 19] | Velvetleaf plant response rating [10, 21]
0: Barnyardgrass plant response rating [3, 14] | Plant response rating, Barnyardgrass [3, 17] | Plant response rating, Barnyardgrass [3, 18] | Plant response rating, Barnyardgrass [3, 19] | Blackgrass plant response rating [4, 14] | Plant response rating, Blackgrass [4, 15] | Plant response rating, Blackgrass [4, 16] | Plant response rating, Blackgrass [4, 17] | Plant response rating, Blackgrass [4, 18] | Plant response rating, Blackgrass [4, 19] | Blackgrass plant response rating [4, 21] | Plant response rating, Galium [5, 17] | Plant response rating, Galium [5, 18] | Plant response rating, Galium [5, 19] | Plant response rating, Nutsedge, Yellow [6, 15] | Plant response rating, Nutsedge, Yellow [6, 17] | Plant response rating, Nutsedge, Yellow [6, 18] | Plant response rating, Nutsedge, Yellow [6, 19] | Nutsedge, Yellow plant response rating [6, 20] | Nutsedge, Yellow plant response rating [6, 21] | Plant response rating, Ragweed [8, 17] | Plant response rating, Ragweed [8, 18] | Plant response rating, Ragweed [8, 19] | Soybean plant response rating (soybean (Glycine max); [21]) | Plant response rating, Velvetleaf [10, 17] | Plant response rating, Velvetleaf [10, 18] | Chickweed plant response rating [11, 14] | Chickweed plant response rating [11, 21] | Kochia plant response rating (kochia (Kochia scoparia); [21])
85: Plant response rating, Galium [5, 15] | Plant response rating, Kochia (kochia (Kochia scoparia); [23])
25: Plant response rating, Ragweed [8, 15]
55: Plant response rating, Ryegrass, Italian [9, 16]
65: Plant response rating, Pigweed [7, 19] | Pigweed plant response rating [7, 20]
75: Plant response rating, Pigweed [7, 16]
15: Plant response rating, Barnyardgrass [3, 15] | Plant response rating, Soybean (soybean (Glycine max); [17]) | Plant response rating, Chickweed [11, 15]
80: Galium plant response rating [5, 21]
100: Plant response rating, Galium [2, 13] | Plant response rating, Galium ([2]; 500 g ai/ha, visual rating after approx. 10 d, 0 to 100 scale (0 no effect, 100 complete control))
60: Plant response rating, Pigweed [7, 15] | Plant response rating, Chickweed [11, 16]
30: Plant response rating, Ryegrass, Italian [9, 19] | Ryegrass, Italian plant response rating [9, 20] | Ryegrass, Italian plant response rating [9, 21] | Plant response rating, Velvetleaf [10, 16] | Velvetleaf plant response rating [10, 20]
